Results from ChEMBL document CHEMBL2440076, “New triarylpyrazoles as broad-spectrum anticancer agents: design, synthesis, and biological evaluation” (Eur J Med Chem, 2013).

Experiments:
Type in all cases: functional
SNB-19 [1] = assay: Growth inhibition of human SNB19 cells assessed as cell growth at 5X10'-5 M after 48 hrs by sulforhodamine B assay; conditions: SNB-19, 48 h, read-out: Activity
HOP-62 = assay: Growth inhibition of human HOP62 cells assessed as cell growth at 5X10'-5 M after 48 hrs by sulforhodamine B assay; conditions: HOP-62, 48 h, read-out: Activity
SR [2] = assay: Growth inhibition of human SR cells assessed as cell growth at 5X10'-5 M after 48 hrs by sulforhodamine B assay; conditions: read-out: Activity
SN12C = assay: Growth inhibition of human SN12C cells assessed as cell growth at 5X10'-6 M after 48 hrs by sulforhodamine B assay; conditions: read-out: Activity
SK-OV-3 = assay: Growth inhibition of human SKOV3 cells assessed as cell growth at 5X10'-6 M after 48 hrs by sulforhodamine B assay; conditions: SK-OV-3, 48 h, read-out: Activity
OVCAR-8 = assay: Growth inhibition of human OVCAR8 cells assessed as cell growth at 5X10'-6 M after 48 hrs by sulforhodamine B assay; conditions: OVCAR-8, 48 h, read-out: Activity
IGROV-1 [3] = assay: Growth inhibition of human IGROV1 cells assessed as cell growth at 5X10'-6 M after 48 hrs by sulforhodamine B assay; conditions: IGROV-1, 48 h, read-out: Activity
Malme-3M = assay: Growth inhibition of human MALME-3M cells assessed as cell growth at 5X10'-6 M after 48 hrs by sulforhodamine B assay; conditions: read-out: Activity
NCI-H460 = assay: Growth inhibition of human NCI-H460 cells assessed as cell growth at 5X10'-9 M after 48 hrs by sulforhodamine B assay; conditions: NCI-H460, 48 h, read-out: Activity
A549 = assay: Growth inhibition of human A549/ATCC cells assessed as cell growth at 5X10'-9 M after 48 hrs by sulforhodamine B assay; conditions: A549, 48 h, read-out: Activity
SF-295 [4] = assay: Growth inhibition of human SF295 cells assessed as cell growth at 5X10'-6 M after 48 hrs by sulforhodamine B assay; conditions: SF-295, 48 h, read-out: Activity
SW-620 [5] = assay: Growth inhibition of human SW620 cells assessed as cell growth at 5X10'-6 M after 48 hrs by sulforhodamine B assay; conditions: SW-620, 48 h, read-out: Activity
NCI-H522 = assay: Growth inhibition of human NCI-H522 cells assessed as cell growth at 5X10'-6 M after 48 hrs by sulforhodamine B assay; conditions: NCI-H522, 48 h, read-out: Activity
CCRF-CEM = assay: Growth inhibition of human CCRF-CEM cells assessed as cell growth at 5X10'-6 M after 48 hrs by sulforhodamine B assay; conditions: read-out: Activity
PC-3 = assay: Growth inhibition of human PC3 cells assessed as cell growth at 5X10'-7 M after 48 hrs by sulforhodamine B assay; conditions: PC-3, 48 h, read-out: Activity
LOX IMVI [6] = assay: Growth inhibition of human LOXIMVI cells assessed as cell growth at 5X10'-7 M after 48 hrs by sulforhodamine B assay; conditions: read-out: Activity
U-251 = assay: Growth inhibition of human U251 cells assessed as cell growth at 5X10'-7 M after 48 hrs by sulforhodamine B assay; conditions: U-251, 48 h, read-out: Activity
SW-620 [7] = assay: Growth inhibition of human SW620 cells assessed as cell growth at 5X10'-7 M after 48 hrs by sulforhodamine B assay; conditions: SW-620, 48 h, read-out: Activity
KM12 = assay: Growth inhibition of human KM12 cells assessed as cell growth at 5X10'-7 M after 48 hrs by sulforhodamine B assay; conditions: KM12, 48 h, read-out: Activity
NCI-H226 = assay: Growth inhibition of human NCI-H226 cells assessed as cell growth at 5X10'-7 M after 48 hrs by sulforhodamine B assay; conditions: NCI-H226, 48 h, read-out: Activity
HOP-92 = assay: Growth inhibition of human HOP92 cells assessed as cell growth at 5X10'-7 M after 48 hrs by sulforhodamine B assay; conditions: HOP-92, 48 h, read-out: Activity
MOLT-4 = assay: Growth inhibition of human MOLT4 cells assessed as cell growth at 5X10'-7 M after 48 hrs by sulforhodamine B assay; conditions: MOLT-4, 48 h, read-out: Activity
MDA-MB-468 = assay: Growth inhibition of human MDA-MB-468 cells assessed as cell growth at 5X10'-8 M after 48 hrs by sulforhodamine B assay; conditions: MDA-MB-468, 48 h, read-out: Activity
786-0 = assay: Growth inhibition of human 786-0 cells assessed as cell growth at 5X10'-8 M after 48 hrs by sulforhodamine B assay; conditions: 786-0, 48 h, read-out: Activity
OVCAR-5 = assay: Growth inhibition of human OVCAR5 cells assessed as cell growth at 5X10'-8 M after 48 hrs by sulforhodamine B assay; conditions: OVCAR-5, 48 h, read-out: Activity
SF-295 [8] = assay: Growth inhibition of human SF295 cells assessed as cell growth at 5X10'-8 M after 48 hrs by sulforhodamine B assay; conditions: SF-295, 48 h, read-out: Activity
UO-31 [9] = assay: Growth inhibition of human UO31 cells assessed as cell growth at 5X10'-5 M after 48 hrs by sulforhodamine B assay; conditions: UO-31, 48 h, read-out: Activity
OVCAR-4 = assay: Growth inhibition of human OVCAR4 cells assessed as cell growth at 5X10'-5 M after 48 hrs by sulforhodamine B assay; conditions: OVCAR-4, 48 h, read-out: Activity
IGROV-1 [10] = assay: Growth inhibition of human IGROV1 cells assessed as cell growth at 5X10'-5 M after 48 hrs by sulforhodamine B assay; conditions: IGROV-1, 48 h, read-out: Activity
SK-MEL-5 = assay: Growth inhibition of human SK-MEL-5 cells assessed as cell growth at 5X10'-5 M after 48 hrs by sulforhodamine B assay; conditions: SK-MEL-5, 48 h, read-out: Activity
SK-MEL-28 = assay: Growth inhibition of human SK-MEL-28 cells assessed as cell growth at 5X10'-5 M after 48 hrs by sulforhodamine B assay; conditions: SK-MEL-28, 48 h, read-out: Activity
HT-29 = assay: Growth inhibition of human HT-29 cells assessed as cell growth at 5X10'-8 M after 48 hrs by sulforhodamine B assay; conditions: HT-29, 48 h, read-out: Activity
SR [11] = assay: Growth inhibition of human SR cells assessed as cell growth at 5X10'-8 M after 48 hrs by sulforhodamine B assay; conditions: read-out: Activity
UO-31 [12] = assay: Growth inhibition of human UO31 cells assessed as cell growth at 5X10'-9 M after 48 hrs by sulforhodamine B assay; conditions: UO-31, 48 h, read-out: Activity
OVCAR-3 = assay: Growth inhibition of human OVCAR3 cells assessed as cell growth at 5X10'-9 M after 48 hrs by sulforhodamine B assay; conditions: OVCAR-3, 48 h, read-out: Activity
LOX IMVI [13] = assay: Growth inhibition of human LOXIMVI cells assessed as cell growth at 5X10'-9 M after 48 hrs by sulforhodamine B assay; conditions: read-out: Activity
SNB-19 [14] = assay: Growth inhibition of human SNB19 cells assessed as cell growth at 5X10'-9 M after 48 hrs by sulforhodamine B assay; conditions: SNB-19, 48 h, read-out: Activity

COc1cc(-c2nn(-c3cccc(NC(=O)Nc4ccc(Cl)c(Cl)c4)c3)cc2-c2ccncc2)ccc1Cl
growth at 50 µM (SNB-19 [1]): 15%
growth at 50 µM (HOP-62): -9%
growth at 50 µM (SR [2]): -26%
growth at 5 µM (SN12C): 14%
growth at 5 µM (SK-OV-3): 12%
growth at 5 µM (OVCAR-8): -12%
growth at 5 µM (IGROV-1 [3]): -17%
growth at 5 µM (Malme-3M): -38%
growth at 0.005 µM (NCI-H460): 102%
growth at 0.005 µM (A549): 98%
growth at 5 µM (SF-295 [4]): -26%
growth at 5 µM (SW-620 [5]): 11%
growth at 5 µM (NCI-H522): -18%
growth at 5 µM (CCRF-CEM): -2%
growth at 0.5 µM (PC-3): 53%
growth at 0.5 µM (LOX IMVI [6]): 82%
growth at 0.5 µM (U-251): 72%
growth at 0.5 µM (SW-620 [7]): 89%
growth at 0.5 µM (KM12): 70%
growth at 0.5 µM (NCI-H226): 82%
growth at 0.5 µM (HOP-92): 35%
growth at 0.5 µM (MOLT-4): 78%
growth at 0.05 µM (MDA-MB-468): 84%
growth at 0.05 µM (786-0): 102%
growth at 0.05 µM (OVCAR-5): 90%
growth at 0.05 µM (SF-295 [8]): 88%
growth at 50 µM (UO-31 [9]): -11%
growth at 50 µM (OVCAR-4): 5%
growth at 50 µM (IGROV-1 [10]): -26%
growth at 50 µM (SK-MEL-5): -90%
growth at 50 µM (SK-MEL-28): -6%
growth at 0.05 µM (HT-29): 102%
growth at 0.05 µM (SR [11]): 105%
growth at 0.005 µM (UO-31 [12]): 88%
growth at 0.005 µM (OVCAR-3): 104%
growth at 0.005 µM (LOX IMVI [13]): 97%
growth at 0.005 µM (SNB-19 [14]): 92%

COc1cc(-c2nn(-c3cccc(NC(=O)Nc4cccc(C(F)(F)F)c4)c3)cc2-c2ccncc2)ccc1Cl
growth at 50 µM (SNB-19 [1]): -18%
growth at 50 µM (HOP-62): -32%
growth at 50 µM (SR [2]): -16%
growth at 5 µM (SN12C): 12%
growth at 5 µM (SK-OV-3): 16%
growth at 5 µM (OVCAR-8): -24%
growth at 5 µM (IGROV-1 [3]): -22%
growth at 5 µM (Malme-3M): -44%
growth at 0.005 µM (NCI-H460): 100%
growth at 0.005 µM (A549): 97%
growth at 5 µM (SF-295 [4]): -71%
growth at 5 µM (SW-620 [5]): 5%
growth at 5 µM (NCI-H522): -30%
growth at 5 µM (CCRF-CEM): -1%
growth at 0.5 µM (PC-3): 44%
growth at 0.5 µM (LOX IMVI [6]): 81%
growth at 0.5 µM (U-251): 67%
growth at 0.5 µM (SW-620 [7]): 79%
growth at 0.5 µM (KM12): 55%
growth at 0.5 µM (NCI-H226): 84%
growth at 0.5 µM (HOP-92): 55%
growth at 0.5 µM (MOLT-4): 74%
growth at 0.05 µM (MDA-MB-468): 92%
growth at 0.05 µM (786-0): 95%
growth at 0.05 µM (OVCAR-5): 86%
growth at 0.05 µM (SF-295 [8]): 91%
growth at 50 µM (UO-31 [9]): -35%
growth at 50 µM (OVCAR-4): -3%
growth at 50 µM (IGROV-1 [10]): -43%
growth at 50 µM (SK-MEL-5): -97%
growth at 50 µM (SK-MEL-28): -69%
growth at 0.05 µM (HT-29): 99%
growth at 0.05 µM (SR [11]): 93%
growth at 0.005 µM (UO-31 [12]): 88%
growth at 0.005 µM (OVCAR-3): 108%
growth at 0.005 µM (LOX IMVI [13]): 95%
growth at 0.005 µM (SNB-19 [14]): 96%

O=C(Nc1cccc(-n2cc(-c3ccncc3)c(-c3ccc(Cl)c(O)c3)n2)c1)c1ccc(N2CCOCC2)c(C(F)(F)F)c1
growth at 50 µM (SNB-19 [1]): 16%
growth at 50 µM (HOP-62): 6%
growth at 50 µM (SR [2]): 8%
growth at 5 µM (SN12C): 70%
growth at 5 µM (SK-OV-3): 72%
growth at 5 µM (OVCAR-8): 41%
growth at 5 µM (IGROV-1 [3]): 68%
growth at 5 µM (Malme-3M): -9%
growth at 0.005 µM (NCI-H460): 103%
growth at 0.005 µM (A549): 102%
growth at 5 µM (SF-295 [4]): 13%
growth at 5 µM (SW-620 [5]): 2%
growth at 5 µM (NCI-H522): 29%
growth at 5 µM (CCRF-CEM): 26%
growth at 0.5 µM (PC-3): 85%
growth at 0.5 µM (LOX IMVI [6]): 92%
growth at 0.5 µM (U-251): 94%
growth at 0.5 µM (SW-620 [7]): 106%
growth at 0.5 µM (KM12): 85%
growth at 0.5 µM (NCI-H226): 99%
growth at 0.5 µM (HOP-92): 53%
growth at 0.5 µM (MOLT-4): 87%
growth at 0.05 µM (MDA-MB-468): 93%
growth at 0.05 µM (786-0): 95%
growth at 0.05 µM (OVCAR-5): 97%
growth at 0.05 µM (SF-295 [8]): 98%
growth at 50 µM (UO-31 [9]): -5%
growth at 50 µM (OVCAR-4): 46%
growth at 50 µM (IGROV-1 [10]): 4%
growth at 50 µM (SK-MEL-5): -70%
growth at 50 µM (SK-MEL-28): -54%
growth at 0.05 µM (HT-29): 101%
growth at 0.05 µM (SR [11]): 99%
growth at 0.005 µM (UO-31 [12]): 88%
growth at 0.005 µM (OVCAR-3): 98%
growth at 0.005 µM (LOX IMVI [13]): 95%
growth at 0.005 µM (SNB-19 [14]): 97%
